Patent publication US20120115896A1, “ISOGENIC HUMAN CELL LINES COMPRISING MUTATED CANCER ALLELES AND PROCESS USING THE CELL LINES” (priority 2008, published 2012)
Like-named read-outs stand apart in the source and are kept apart here.

Assays:
[1] = tested on: hTERT-HME1 DKI cells carrying PIK3CA (H1047R) and EGFR (delE746-A750)
[2] = tested on: hTERT-HME1 cells carrying KRAS (G13D) KI; test: Drug assay: cell viability by ATP content (96 h), KI versus parental cells; ΔKI pharmarray analysis
[3] = tested on: hTERT-HME1 cells carrying BRAF (V600E) KI; test: as above
[4] = tested on: hTERT-HME1 cells carrying EGFR (delE746-A750) KI; test: Drug assay: cell viability by ATP content (CellTiter-Glo, 96 h), KI versus parental cells; ΔKI pharmarray analysis
[5] = tested on: hTERT-HME1 cells carrying PIK3CA (E545K and H1047R) KI; test: Drug assay: cell viability by ATP content (96 h) and Hoechst/propidium iodide staining, KI versus parental cells; ΔKI pharmarray analysis
[6] = tested on: hTERT-HME1 DKI cells carrying PIK3CA (H1047R) and EGFR (delE746-A750); test: Drug assay: cell viability by ATP content (96 h), DKI versus parental cells; ΔKI pharmarray analysis

**Q.** How did the “ΔKI PIK3CA + EGFR” value ([1]; Log(M) −4.05) turn out when `C[C@]12CC[C@@H]3c4ccc(O)cc4C[C@@H](CCCCCCCCC[S+]([O-])CCCC(F)(F)C(F)(F)F)[C@H]3[C@@H]1CC[C@@H]2O` (stereo partly drawn) [Fulvestrant] was run?
**A.** 0

**Q.** What about the “ΔKI PIK3CA + EGFR” value ([1]; Log(M) −4.52) of the same compound?
**A.** 0

**Q.** And the “ΔKI PIK3CA + EGFR” value ([1]; Log(M) −5.00)?
**A.** 0

**Q.** Which results are given for `CC(C)c1c(C(=O)Nc2ccccc2)c(-c2ccccc2)c(-c2ccc(F)cc2)n1CC[C@@H](O)C[C@@H](O)CC(=O)[O-].CC(C)c1c(C(=O)Nc2ccccc2)c(-c2ccccc2)c(-c2ccc(F)cc2)n1CC[C@@H](O)C[C@@H](O)CC(=O)[O-].[Ca+2]` [Atorvastatin Ca]?
**A.** ΔKI KRAS ([2]; Log(M) −5.25): 0; ΔKI KRAS ([2]; Log(M) −5.85): 0; ΔKI KRAS ([2]; Log(M) −6.46): 0; ΔKI BRAF ([3]; Log(M) −5.25): 0; ΔKI BRAF ([3]; Log(M) −5.85): −2.6; ΔKI BRAF ([3]; Log(M) −6.46): 0; ΔKI EGFR ([4]; Log(M) −5.25): 0; ΔKI EGFR ([4]; Log(M) −5.85): 0; ΔKI EGFR ([4]; Log(M) −6.46): 0; ΔKI PIK3CA ([5]; Log(M) −5.25): 0; ΔKI PIK3CA ([5]; Log(M) −5.85): 9.44; ΔKI PIK3CA ([5]; Log(M) −6.46): 0; ΔKI PIK3CA + EGFR ([6]; Log(M) −5.25): 0; ΔKI PIK3CA + EGFR ([6]; Log(M) −5.85): 0; ΔKI PIK3CA + EGFR ([6]; Log(M) −6.46): 0

**Q.** How did the “ΔKI KRAS” value [2] turn out when `CN(C)CCCn1cc(C2=C(c3c[nH]c4ccccc34)C(=O)NC2=O)c2ccccc21` [Bisindolylmaleimide I] was run?
**A.** 0

**Q.** And the “ΔKI KRAS” value ([2]; Log(M) −5.70)?
**A.** 0

**Q.** What about the “ΔKI BRAF” value [3] of the same compound?
**A.** 0

**Q.** What about the “ΔKI BRAF” value ([3]; Log(M) −5.70) of the same compound?
**A.** 0

**Q.** What about the “ΔKI EGFR” value [4] of the same compound?
**A.** 0

**Q.** And the “ΔKI EGFR” value ([4]; Log(M) −5.70)?
**A.** 0

**Q.** What about the “ΔKI PIK3CA” value [5] of the same compound?
**A.** 0

**Q.** And the “ΔKI PIK3CA” value ([5]; Log(M) −5.70)?
**A.** 0

**Q.** And the “ΔKI PIK3CA + EGFR” value [6]?
**A.** 0

**Q.** What about the “ΔKI PIK3CA + EGFR” value ([6]; Log(M) −5.70) of the same compound?
**A.** 0

**Q.** How did the “ΔKI KRAS” value ([2]; Log(M) −4.32) turn out when `CC[C@H](C)C(=O)O[C@H]1C[C@H](O)C=C2C=C[C@H](C)[C@H](CC[C@@H](O)C[C@@H](O)CC(=O)[O-])[C@H]21.[Na+]` [Pravastatin Na] was run?
**A.** 0

**Q.** What about the “ΔKI KRAS” value ([2]; Log(M) −4.92) of the same compound?
**A.** 0

**Q.** What about the “ΔKI KRAS” value ([2]; Log(M) −5.52) of the same compound?
**A.** 0

**Q.** And the “ΔKI BRAF” value ([3]; Log(M) −4.32)?
**A.** 0

**Q.** And the “ΔKI BRAF” value ([3]; Log(M) −4.92)?
**A.** 0

**Q.** And the “ΔKI BRAF” value ([3]; Log(M) −5.52)?
**A.** 0

**Q.** And the “ΔKI EGFR” value ([4]; Log(M) −4.32)?
**A.** 0

**Q.** What about the “ΔKI EGFR” value ([4]; Log(M) −4.92) of the same compound?
**A.** 0

**Q.** What about the “ΔKI EGFR” value ([4]; Log(M) −5.52) of the same compound?
**A.** 0

**Q.** And the “ΔKI PIK3CA” value ([5]; Log(M) −4.32)?
**A.** 0

**Q.** What about the “ΔKI PIK3CA” value ([5]; Log(M) −5.52) of the same compound?
**A.** 0

**Q.** What about the “ΔKI PIK3CA + EGFR” value ([6]; Log(M) −4.32) of the same compound?
**A.** 0

**Q.** What about the “ΔKI PIK3CA + EGFR” value ([6]; Log(M) −4.92) of the same compound?
**A.** 0

**Q.** What about the “ΔKI PIK3CA + EGFR” value ([6]; Log(M) −5.52) of the same compound?
**A.** 0

**Q.** `CO[C@H]1/C=C\C=C(/C)C(=O)NC2=CC(=O)C(NCCN(C)C)=C(C[C@@H](C)C[C@H](OC)[C@H](O)[C@@H](C)/C=C(\C)[C@@H]1OC(N)=O)C2=O` [17-DMAG] was tested. Which “ΔKI KRAS” value ([2]; Log(M) −6.19) did it give?
**A.** 0

**Q.** And the “ΔKI KRAS” value ([2]; Log(M) −6.89)?
**A.** 0

**Q.** What about the “ΔKI KRAS” value ([2]; Log(M) −7.00) of the same compound?
**A.** 0

**Q.** And the “ΔKI KRAS” value ([2]; Log(M) −7.40)?
**A.** 0

**Q.** What about the “ΔKI KRAS” value ([2]; Log(M) −7.70) of the same compound?
**A.** 0

**Q.** What about the “ΔKI KRAS” value ([2]; Log(M) −8.10) of the same compound?
**A.** 0

**Q.** What about the “ΔKI KRAS” value ([2]; Log(M) −8.40) of the same compound?
**A.** 0

**Q.** And the “ΔKI BRAF” value ([3]; Log(M) −6.19)?
**A.** 0

**Q.** What about the “ΔKI BRAF” value ([3]; Log(M) −6.89) of the same compound?
**A.** 0

**Q.** What about the “ΔKI BRAF” value ([3]; Log(M) −7.00) of the same compound?
**A.** 0

**Q.** And the “ΔKI BRAF” value ([3]; Log(M) −7.40)?
**A.** 0

**Q.** And the “ΔKI BRAF” value ([3]; Log(M) −7.70)?
**A.** 0

**Q.** And the “ΔKI BRAF” value ([3]; Log(M) −8.10)?
**A.** 0

**Q.** And the “ΔKI BRAF” value ([3]; Log(M) −8.40)?
**A.** 0

**Q.** What about the “ΔKI EGFR” value ([4]; Log(M) −6.19) of the same compound?
**A.** −1.5

**Q.** What about the “ΔKI EGFR” value ([4]; Log(M) −6.89) of the same compound?
**A.** −12.5

**Q.** And the “ΔKI EGFR” value ([4]; Log(M) −7.00)?
**A.** 0

**Q.** What about the “ΔKI EGFR” value ([4]; Log(M) −7.40) of the same compound?
**A.** 0

**Q.** And the “ΔKI EGFR” value ([4]; Log(M) −7.70)?
**A.** −8.56

**Q.** And the “ΔKI EGFR” value ([4]; Log(M) −8.10)?
**A.** 0

**Q.** And the “ΔKI EGFR” value ([4]; Log(M) −8.40)?
**A.** 0

**Q.** And the “pharmarray: differential response of EGFR mutated cells versus WT” value ([4]; hTERT-HME1, FIG. 5B, 5E)?
**A.** less susceptible than their WT counterpart

**Q.** What about the “ΔKI PIK3CA” value ([5]; Log(M) −6.19) of the same compound?
**A.** 0

**Q.** And the “ΔKI PIK3CA” value ([5]; Log(M) −6.89)?
**A.** 0

**Q.** What about the “ΔKI PIK3CA” value ([5]; Log(M) −7.00) of the same compound?
**A.** 0

**Q.** What about the “ΔKI PIK3CA” value ([5]; Log(M) −7.40) of the same compound?
**A.** 0

**Q.** What about the “ΔKI PIK3CA” value ([5]; Log(M) −7.70) of the same compound?
**A.** 0

**Q.** And the “ΔKI PIK3CA” value ([5]; Log(M) −8.10)?
**A.** 0

**Q.** What about the “ΔKI PIK3CA” value ([5]; Log(M) −8.40) of the same compound?
**A.** 0

**Q.** What about the “ΔKI PIK3CA + EGFR” value ([6]; Log(M) −6.19) of the same compound?
**A.** 1.4

**Q.** And the “ΔKI PIK3CA + EGFR” value ([6]; Log(M) −6.89)?
**A.** 4.46

**Q.** What about the “ΔKI PIK3CA + EGFR” value ([6]; Log(M) −7.00) of the same compound?
**A.** 0

**Q.** And the “ΔKI PIK3CA + EGFR” value ([6]; Log(M) −7.40)?
**A.** −0.12

**Q.** And the “ΔKI PIK3CA + EGFR” value ([6]; Log(M) −7.70)?
**A.** 0

**Q.** What about the “ΔKI PIK3CA + EGFR” value ([6]; Log(M) −8.10) of the same compound?
**A.** −1.02

**Q.** And the “ΔKI PIK3CA + EGFR” value ([6]; Log(M) −8.40)?
**A.** 0

**Q.** For Erybraedin C, which “ΔKI KRAS” value [2] is on record?
**A.** 0

**Q.** And the “ΔKI KRAS” value ([2]; Log(M) −4.70)?
**A.** 0

**Q.** And the “ΔKI BRAF” value [3]?
**A.** 0

**Q.** What about the “ΔKI BRAF” value ([3]; Log(M) −4.70) of the same compound?
**A.** 0

**Q.** What about the “ΔKI EGFR” value [4] of the same compound?
**A.** 0

**Q.** And the “ΔKI EGFR” value ([4]; Log(M) −4.70)?
**A.** 0

**Q.** And the “ΔKI PIK3CA” value [5]?
**A.** 0

**Q.** What about the “ΔKI PIK3CA” value ([5]; Log(M) −4.70) of the same compound?
**A.** 0

**Q.** And the “ΔKI PIK3CA + EGFR” value ([6]; Log(M) −4.70)?
**A.** 0.38

**Q.** Sodium Phenylbutyrate was tested. Which “ΔKI KRAS” value ([2]; Log(M) −1.97) did it give?
**A.** 0

**Q.** What about the “ΔKI KRAS” value ([2]; Log(M) −2.44) of the same compound?
**A.** 0

**Q.** And the “ΔKI KRAS” value ([2]; Log(M) −2.92)?
**A.** 0

**Q.** And the “ΔKI BRAF” value ([3]; Log(M) −1.97)?
**A.** 0

**Q.** What about the “ΔKI BRAF” value ([3]; Log(M) −2.44) of the same compound?
**A.** 0

**Q.** What about the “ΔKI BRAF” value ([3]; Log(M) −2.92) of the same compound?
**A.** 0

**Q.** What about the “ΔKI EGFR” value ([4]; Log(M) −1.97) of the same compound?
**A.** 0

**Q.** What about the “ΔKI EGFR” value ([4]; Log(M) −2.44) of the same compound?
**A.** 0

**Q.** What about the “ΔKI EGFR” value ([4]; Log(M) −2.92) of the same compound?
**A.** 0

**Q.** And the “ΔKI PIK3CA” value ([5]; Log(M) −1.97)?
**A.** 0

**Q.** And the “ΔKI PIK3CA” value ([5]; Log(M) −2.44)?
**A.** 0

**Q.** And the “ΔKI PIK3CA” value ([5]; Log(M) −2.92)?
**A.** 0

**Q.** What about the “ΔKI PIK3CA + EGFR” value ([6]; Log(M) −1.97) of the same compound?
**A.** 0

**Q.** What about the “ΔKI PIK3CA + EGFR” value ([6]; Log(M) −2.44) of the same compound?
**A.** 0

**Q.** What about the “ΔKI PIK3CA + EGFR” value ([6]; Log(M) −2.92) of the same compound?
**A.** 0
